{
  "source": "the supplement of paper PMC10307832",
  "experiment_in_all_cases": "relative viability (nuclei count vs DMSO), 5 days (fraction); higher = more cells survive",
  "key": {"[1]": {"system": "NCI-H520", "in_short": "(§1)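 Lung cancer cell lines were pin-tool dosed in 1536-well plates on the day after seeding, with either a lone drug or a fixed anchor-drug dose plus five library-drug doses (not always all listed) in √10 steps. Nuclei were counted on 4× images after 5 days. Relative viability is the ratio of treated-well to vehicle-well nuclei counts, with each value a median of duplicate plates.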"}, "[2]": {"system": "NCI-H661", "in_short": "as §1"}, "[3]": {"system": "H3255", "in_short": "as §1"}, "[4]": {"system": "NCI-H1975", "in_short": "as §1"}, "[5]": {"system": "NCI-H1944", "in_short": "as §1"}, "[6]": {"system": "COR-L 105", "in_short": "as §1"}, "[7]": {"system": "SK-LU-1", "in_short": "as §1"}, "[8]": {"system": "NCI-H1395", "in_short": "as §1"}, "[9]": {"system": "NCI-H1734", "in_short": "as §1"}, "[10]": {"system": "NCI-H1666", "in_short": "as §1"}, "[11]": {"system": "NCI-H838", "in_short": "as §1"}, "[12]": {"system": "NCI-H647", "in_short": "as §1"}, "[13]": {"system": "PC-14", "in_short": "as §1"}, "[14]": {"system": "NCI-H3122", "in_short": "as §1"}, "[15]": {"system": "PC-3 [JPC-3]", "in_short": "as §1"}, "[16]": {"system": "HCC-366", "in_short": "as §1"}, "[17]": {"system": "LC-2-ad", "in_short": "as §1"}, "[18]": {"system": "NCI-H522", "in_short": "as §1"}, "[19]": {"system": "HARA", "in_short": "as §1"}, "[20]": {"system": "NCI-H1993", "in_short": "as §1"}, "[21]": {"system": "LU99A", "in_short": "as §1"}, "[22]": {"system": "HCC-15", "in_short": "as §1"}},
  "data": [
    {"compound": "CCCCCCCCCCCC1=C(O)C(=O)C=C(O)C1=O", "note": "[Embelin] + Nc1ncn([C@H]2C[C@H](O)[C@@H](CO)O2)c(=O)n1 [Decitabine] (partner 2 µM)", "values": [
      {"measurement": "relative viability", "setting": "[1]; first compound 0.08 µM", "result": 0.478},
      {"measurement": "relative viability", "setting": "[1]; first compound 0.8 µM", "result": 0.558},
      {"measurement": "relative viability", "setting": "[1]; first compound 2.53 µM", "result": 0.552},
      {"measurement": "relative viability", "setting": "[1]; first compound 8 µM", "result": 0.441},
      {"measurement": "relative viability", "setting": "[2]; first compound 0.08 µM", "result": 0.565},
      {"measurement": "relative viability", "setting": "[2]; first compound 0.8 µM", "result": 0.614},
      {"measurement": "relative viability", "setting": "[2]; first compound 2.53 µM", "result": 0.649},
      {"measurement": "relative viability", "setting": "[2]; first compound 8 µM", "result": 0.541},
      {"measurement": "relative viability", "setting": "[3]; first compound 0.08 µM", "result": 0.502},
      {"measurement": "relative viability", "setting": "[3]; first compound 0.8 µM", "result": 0.783},
      {"measurement": "relative viability", "setting": "[3]; first compound 2.53 µM", "result": 0.617},
      {"measurement": "relative viability", "setting": "[3]; first compound 8 µM", "result": 0.656},
      {"measurement": "relative viability", "setting": "[4]; first compound 0.08 µM", "result": 0.377},
      {"measurement": "relative viability", "setting": "[4]; first compound 0.8 µM", "result": 0.432},
      {"measurement": "relative viability", "setting": "[4]; first compound 2.53 µM", "result": 0.37},
      {"measurement": "relative viability", "setting": "[4]; first compound 8 µM", "result": 0.586},
      {"measurement": "relative viability", "setting": "[5]; first compound 0.08 µM", "result": 0.436},
      {"measurement": "relative viability", "setting": "[5]; first compound 0.8 µM", "result": 0.406},
      {"measurement": "relative viability", "setting": "[5]; first compound 2.53 µM", "result": 0.5},
      {"measurement": "relative viability", "setting": "[5]; first compound 8 µM", "result": 0.443},
      {"measurement": "relative viability", "setting": "[6]; first compound 0.08 µM", "result": 0.676},
      {"measurement": "relative viability", "setting": "[6]; first compound 0.8 µM", "result": 0.715},
      {"measurement": "relative viability", "setting": "[6]; first compound 2.53 µM", "result": 0.657},
      {"measurement": "relative viability", "setting": "[6]; first compound 8 µM", "result": 0.751},
      {"measurement": "relative viability", "setting": "[7]; first compound 0.08 µM", "result": 0.617},
      {"measurement": "relative viability", "setting": "[7]; first compound 0.8 µM", "result": 0.683},
      {"measurement": "relative viability", "setting": "[7]; first compound 2.53 µM", "result": 0.709},
      {"measurement": "relative viability", "setting": "[7]; first compound 8 µM", "result": 0.641},
      {"measurement": "relative viability", "setting": "[8]; first compound 0.08 µM", "result": 0.712},
      {"measurement": "relative viability", "setting": "[8]; first compound 0.8 µM", "result": 0.872},
      {"measurement": "relative viability", "setting": "[8]; first compound 2.53 µM", "result": 0.699},
      {"measurement": "relative viability", "setting": "[8]; first compound 8 µM", "result": 0.698},
      {"measurement": "relative viability", "setting": "[9]; first compound 0.08 µM", "result": 0.514},
      {"measurement": "relative viability", "setting": "[9]; first compound 0.8 µM", "result": 0.56},
      {"measurement": "relative viability", "setting": "[9]; first compound 2.53 µM", "result": 0.56},
      {"measurement": "relative viability", "setting": "[9]; first compound 8 µM", "result": 0.516},
      {"measurement": "relative viability", "setting": "[10]; first compound 0.08 µM", "result": 0.712},
      {"measurement": "relative viability", "setting": "[10]; first compound 0.8 µM", "result": 0.812},
      {"measurement": "relative viability", "setting": "[10]; first compound 2.53 µM", "result": 0.78},
      {"measurement": "relative viability", "setting": "[10]; first compound 8 µM", "result": 0.757},
      {"measurement": "relative viability", "setting": "[11]; first compound 0.08 µM", "result": 0.478},
      {"measurement": "relative viability", "setting": "[11]; first compound 0.8 µM", "result": 0.485},
      {"measurement": "relative viability", "setting": "[11]; first compound 2.53 µM", "result": 0.502},
      {"measurement": "relative viability", "setting": "[11]; first compound 8 µM", "result": 0.321},
      {"measurement": "relative viability", "setting": "[12]; first compound 0.08 µM", "result": 0.454},
      {"measurement": "relative viability", "setting": "[12]; first compound 0.8 µM", "result": 0.379},
      {"measurement": "relative viability", "setting": "[12]; first compound 2.53 µM", "result": 0.488},
      {"measurement": "relative viability", "setting": "[12]; first compound 8 µM", "result": 0.277},
      {"measurement": "relative viability", "setting": "[13]; first compound 0.08 µM", "result": 0.254},
      {"measurement": "relative viability", "setting": "[13]; first compound 0.8 µM", "result": 0.21},
      {"measurement": "relative viability", "setting": "[13]; first compound 2.53 µM", "result": 0.163},
      {"measurement": "relative viability", "setting": "[13]; first compound 8 µM", "result": 0.209},
      {"measurement": "relative viability", "setting": "[14]; first compound 0.08 µM", "result": 0.385},
      {"measurement": "relative viability", "setting": "[14]; first compound 0.8 µM", "result": 0.446},
      {"measurement": "relative viability", "setting": "[14]; first compound 2.53 µM", "result": 0.419},
      {"measurement": "relative viability", "setting": "[14]; first compound 8 µM", "result": 0.397},
      {"measurement": "relative viability", "setting": "[15]; first compound 0.08 µM", "result": 0.776},
      {"measurement": "relative viability", "setting": "[15]; first compound 0.8 µM", "result": 0.882},
      {"measurement": "relative viability", "setting": "[15]; first compound 2.53 µM", "result": 0.919},
      {"measurement": "relative viability", "setting": "[15]; first compound 8 µM", "result": 0.821},
      {"measurement": "relative viability", "setting": "[16]; first compound 0.08 µM", "result": 0.341},
      {"measurement": "relative viability", "setting": "[16]; first compound 0.8 µM", "result": 0.306},
      {"measurement": "relative viability", "setting": "[16]; first compound 2.53 µM", "result": 0.372},
      {"measurement": "relative viability", "setting": "[16]; first compound 8 µM", "result": 0.336},
      {"measurement": "relative viability", "setting": "[17]; first compound 0.08 µM", "result": 0.788},
      {"measurement": "relative viability", "setting": "[17]; first compound 0.8 µM", "result": 0.79},
      {"measurement": "relative viability", "setting": "[17]; first compound 2.53 µM", "result": 0.795},
      {"measurement": "relative viability", "setting": "[17]; first compound 8 µM", "result": 0.782},
      {"measurement": "relative viability", "setting": "[18]; first compound 0.08 µM", "result": 0.647},
      {"measurement": "relative viability", "setting": "[18]; first compound 0.8 µM", "result": 0.617},
      {"measurement": "relative viability", "setting": "[18]; first compound 2.53 µM", "result": 0.578},
      {"measurement": "relative viability", "setting": "[18]; first compound 8 µM", "result": 0.704},
      {"measurement": "relative viability", "setting": "[19]; first compound 0.08 µM", "result": 0.51},
      {"measurement": "relative viability", "setting": "[19]; first compound 0.8 µM", "result": 0.549},
      {"measurement": "relative viability", "setting": "[19]; first compound 2.53 µM", "result": 0.587},
      {"measurement": "relative viability", "setting": "[19]; first compound 8 µM", "result": 0.573},
      {"measurement": "relative viability", "setting": "[20]; first compound 0.08 µM", "result": 0.481},
      {"measurement": "relative viability", "setting": "[20]; first compound 0.8 µM", "result": 0.608},
      {"measurement": "relative viability", "setting": "[20]; first compound 2.53 µM", "result": 0.627},
      {"measurement": "relative viability", "setting": "[20]; first compound 8 µM", "result": 0.548},
      {"measurement": "relative viability", "setting": "[21]; first compound 0.08 µM", "result": 1.01},
      {"measurement": "relative viability", "setting": "[21]; first compound 0.8 µM", "result": 1.08},
      {"measurement": "relative viability", "setting": "[21]; first compound 2.53 µM", "result": 0.942},
      {"measurement": "relative viability", "setting": "[21]; first compound 8 µM", "result": 0.91},
      {"measurement": "relative viability", "setting": "[22]; first compound 0.08 µM", "result": 0.619},
      {"measurement": "relative viability", "setting": "[22]; first compound 0.8 µM", "result": 0.694},
      {"measurement": "relative viability", "setting": "[22]; first compound 2.53 µM", "result": 0.697},
      {"measurement": "relative viability", "setting": "[22]; first compound 8 µM", "result": 0.617}
    ]}
  ]
}
